Columns and labels:
[1] = system: human umbilical vein endothelial cells (HUVEC); assay: In vitro model of angiogenesis using HUVEC and skin fibroblasts; format: cell-based; conditions: HUVEC cultures
Text: Compounds are screened for the ability to enhance angiogenesis in human umbilical vein endothelial cells (HUVEC). This method, adapted from Nakatsu et al., Microvas. Res. 2003, describes a protocol that recapitulates the major events essential for new vessel growth: budding, cell migration, cell proliferation, lumen formation, branching, and anastomosis.
HUVEC are used between P3 and P4. HUVEC are mixed with dextran coated cytodex 3 micro-carriers (Amersham Pharmacia) at a concentration of 400 HUVEC per bead in 1 ml of EGM-2 (2% FBS) medium (Clonetics). Beads with cells are then shaken gently every 20 minutes for 4 hours at 37° C. and 5% CO2. After incubating, beads with cells are transferred to a T-25 tissue culture flask and left for 12-16 hours in 5 ml of EGM-2 at 37° C. and 5% CO2.
The following day, beads with cells are washed three times with EGM-2 and re-suspended at a concentration of 200 cell-coated beads/ml in 2.5 mg/ml of fibrinogen (Sigma) with 0.15 U/ml of aprotinin (Sigma) at a pH of 7.4.
500 uL of fibrinogen/bead solution is then added to 0.625 U of thrombin (Sigma) in one well of a 24 well tissue culture plate. Fibrinogen/Bead solution is allowed to clot for 5 minutes at room temperature and then at 37° C. and 5% CO2 for 20 minutes. 1 mL of EGM-2 with 0.15 U/mL of aprotinin is then added to each well and equilibrated with the fibrin clot for 30 minutes at 37° C. and 5% CO2.
Next, media is removed from the well and replaced with 1 mL of fresh medium. […]
Angiogenesis is scored by quantification of images captured on an inverted microscope at 10× and 20× magnification for vessel length, number of vessels and branches per bead using NIH Image J software. […] YFP positive HUVEC are then cultured as described above and quantification of vessel formation is determined by calculating the area under the threshold fluorescence using NIH Image J software. In both cases, enhanced angiogenesis is determined by comparing compound treated cultures with a DMSO control culture at the same time point.

[2] = system: Middle Cerebral Artery Occlusion in adult male Wistar rats; assay: Post Stroke Recovery Model II (MCA electrocoagulation, behavioral tests); format: in vivo, rat
Text: Adult male Wistar rats are pre-trained on a battery of behavioral tests including: tray reach, gridwalk, forelimb asymmetry (cylinder bracing), forelimb inhibition (swim test) (see below for detailed description of tests). Following pre-stroke behavioral assessment, the rats received surgery, during which a stroke is induced. The rats are pseudo-randomly divided into 5 equal groups (n=12) ensuring an equal number of right and left strokes within each treatment group. The first group receives sham surgery with vehicle as treatment. Administration of the test compound and vehicle (dose, route, timing) is determined by the sponsor. The core body temperature is maintained at 37° C. (+/−1°).
Following surgery, all animals are behaviorally assessed 1, 7, and 14 d post-stroke. At the conclusion of behavioral assessment, all rats undergo an MRI to determine infarct volume. Group behavioral performance and stroke volume are compared between groups using one way analysis of variance to determine therapeutic benefit of the compound in rate and extent of recovery of function following MCAO stroke.
Each animal is weighed (average weights were 340 g) and then anesthetized with isoflurane (4% isoflurane carried on 21/min medical grade oxygen to induce surgical plane and then 2% with 2 l/min oxygen to maintain a surgical plane). Following induction of anesthesia each rat is individually marked with an ear-punch and administered a subcutaneous dose of buprenorphine (0.025 mg/kg). Rectal temperature is monitored and maintained at 37° C.+/−1° C. for the duration of the surgery and until the rat is awake and mobile (approximately 3 hr).
The rat is then placed into a stereotaxic apparatus positioned such that the lateral aspect of the head was facing up. The skin between the eye […] and ear is shaved and washed with surgical antiseptic scrub. A vertical incision is made midway between the right orbit and external auditory canal. The underlying temporalis muscle is incised, detached from the skull and retracted with care to preserve the facial nerve. Two sutures hold the temporal muscle away from the lateral aspect of the skull. A craniotomy is performed from the posterior zygoma and along the temporal ridge of the cranium extending ventrally to expose the middle cerebral artery (MCA) and olfactory tract. The dura is opened, and the base of the MCA and the anterior portion of the first branch is electrocoagulated ventral to the olfactory tract, resulting in infarction of the right dorsolateral cerebral cortex.
Time at which stroke occurred is noted upon completion of the electrocoagulation of the MCA. Once bleeding is controlled, the temporal muscle is replaced and the skin sutured. The rat is then removed from the stereotaxic apparatus and moved to the recovery room. A second subcutaneous dose of buprenorphine (0.025 mg/kg) is administered along with 2 cc of Ringers solution. Water, wet rat chow mash, and a warming blanket under 1/2 the cage is made available while in the recovery room. Once the rat is awake and seen to be eating and drinking, it is moved back into its cage in the animal colony.
Forepaw use is measured with a procedure that is adapted from the method devised by Whishaw, O'Connor, and Dunnett (1986). Each animal is food-restricted such that feeding time occurs after testing each day. The animals are placed in test cages (10×18×10 cm high) with floors and fronts constructed of 2-mm bars, 9 mm apart edge to edge. […]

[3] = concentrations shown to induce β-catenin

Cc1nc(-c2ccccc2Cl)nc(Nc2n[nH]c3ncc(F)cc23)c1C [Compound I-37, N-(2-(2-chlorophenyl)-5,6-dimethylpyrhnidin-4-yl)-5-fluoro-1H-pyrazolo[3,4-b]pyridin-3-amine]
vessel and network formation ([1]; 10 nM, 7 days): increase vessel and network formation
cell proliferation [1, 3]: increased cell proliferation was observed
vessel formation [1, 3]: vessel formation was inhibited
Forelimb inhibition (swimming test) deficit ([2]; 7 and 14 days after stroke): significantly ameliorated this deficit
Gridwalk deficit ([2]; 7 and 14 days after stroke): significantly ameliorated this deficit
Tray reaching deficit compared with vehicle treatment ([2]; 7 and 14 days after stroke): significantly ameliorated this deficit
Forepaw asymmetry (cylinder test) deficit ([2]; low dose, 14 days after stroke): significantly ameliorated this deficit
Adhesive removal test ([2]; rat, in vivo): did not show significant effect

— patent US20110224197A1, “PYRIMIDINES AND PYRIDINES USEFUL AS INHIBITORS OF PROTEIN KINASES” (Vertex Pharmaceuticals Incorporated, priority 2008, published 2011)
